According to patent US8066979B1, “Attractants and repellents for the tropical root weevil Diaprepes Abbreviatus” (The United States of America as represented by the …, priority 2007, dated 2011):

Legend:
D. abbreviatus antennae = experiment: Electroantennography (EAG) recordings; design: species or system Diaprepes abbreviatus; settings: for antenna sensory threshold: amount in stimulus cartridge; for Mean EAG of the weevil antenna to the standard: diluted 1000-fold in hexane, mean±SE, n=30; for EAGs compared on the same antenna (enantiomer/racemate comparison): n=3, paired Wilcoxon test; for EAG dose-response curve at the two higher stimulus loads: 10 μg and 100 μg
Method: Electroantennography (EAG) recordings: For EAGs, an adult weevil antenna was mounted between two electrodes as described above for GC-EAD recordings. EAGs were analyzed using EAG 2.3 software (Syntech).
The following chemicals were serially diluted (ca. 0.01-100 μg) in hexane and tested separately on the antenna: cis-3-hexen-1-ol, trans-2-hexen-1-ol, (±)-linalool, (R)-(−)-linalool, (R)-(+)-citronellal, (S)-(−)-citronellal, cis-geraniol (nerol), trans-geraniol, cis-citral (neral), trans-citral (geranial), and carvacrol. Citral isomers were tested together in a blend. In order to compare activity of (±)-linalool and (R)-(−)-linalool ([…] was not available) as well as (R)-(+)-citronellal and (S)-(−)-citronellal, the enantiomers were tested alternatively on the same antenna of female and male weevils. Solvents and synthetic chemicals used in this investigation were ≧97% pure and acquired from Aldrich, Fisher Scientific, Fluka, and Sigma. Nomenclature of chemicals in the text follows that employed by NIST (http://webbook.nist.gov/chemistry/). One microliter of each solution was deposited on a small filter paper strip (0.8×2 cm; Whatman) that was inserted into a Pasteur pipette (cartridge) after solvent evaporation. The tip of the pipette was introduced via a hole in the wall of the stainless steel tube at 3 cm from the preparation. An air current (0.5 s duration, 50 cm/s airspeed; Air Velocity Meter 441S, Kurtz Instruments, USA) swept the chemicals evaporating from the filter paper from the cartridge (Stimulus Controller CS-05, Syntech) to the air-stream in which the antenna was bathed. Interstimulus time intervals of 2-3 min allowed for recovery of the antennal receptors. To allow for changes in sensitivity of an antenna preparation over time, stimulation with a standard compound preceded and followed each stimulus tested. A puff of 1 μg of (R)-(−)-linalool served as standard for EAGs with cis-3-hexen-1-ol and trans-2-hexen-1-ol, and 1 μg of cis-3-hexen-1-ol for EAGs with other compounds. A solvent control consisted of 1 μl of hexane on filter paper. EAGs were standardized by calculating the percent response of the experimental odorant relative to the mean of two responses to the standard preceding and following its presentation.
(§1) Statistical analysis: EAGs between (±)-linalool and (R)-(−)-linalool as well as between (R)-(+)-citronellal and (S)-(−)-citronellal on the same antenna were compared using the paired Wilcoxon test (Sokal, R. R., and F. J. Rohlf, Biometry, 3rd ed. Freeman, New York (1995)). Relative and absolute proportions of volatiles released by undamaged and damaged citrus leaves were also compared using the paired Wilcoxon test. Insect choices between test and control T-track olfactometer extremes were assessed for significant differences by the hypothesis on binomial proportions based on the standard normal approximation (Brase, C. H., and C. P. Brase, Understanding statistics, 1983, DC Health and Co, Lexington, Mass.). Other behaviors were analyzed using the paired Wilcoxon test and Chi-square test. Statistical analysis was performed using R (version 2.4.0, Vienna, Austria; Ihaka, R., and R. […], J. Comput. Graph. Stat., 5: 299-314 (1996)).

[1] = test system: D. abbreviatus male antenna; experiment: Gas chromatography-linked electroantennogram detection (GC-EAD); design: species or system Diaprepes abbreviatus; settings: for antennal response (EAD) to constituents of citrus leaf headspace: SPME collection of citrus leaf volatiles, HP-5 column
Text: Gas chromatography-linked electroantennogram detection (GC-EAD): The antenna of the insect was employed as a detector in tandem with a high resolution gas chromatography system (GC, Hewlett Packard, […]) as in Dickens (Dickens, J. C., Agr. Forest Entomol., 1: 47-54 (1999)) to locate biologically active constituents in volatile collections of plants and candidate chemicals. An adult weevil antenna was mounted between two glass capillaries. Silver wires were inserted into the ends of both glass capillaries. One glass capillary filled with 0.1 M NaCl served as recording electrode holding the tip of the flagellum. The other capillary filled with electrode gel (Spectra 360, Parker Laboratories, USA) served as ground electrode holding the proximal end of the pedicel. The antenna was bathed in a humidified air-stream (60% RH, 23±2° C.) delivered at 30 cm/s (Stimulus Controller CS-05, Syntech) via a stainless steel tube (5 mm internal diameter) whose outlet was approximately 0.5 cm from the preparation. The electrophysiological signal was amplified and conditioned prior to storage and analyses using a computer equipped with GC-EAD 2.3 software (Syntech). Samples were injected into the gas chromatograph with a septum-purged packed column injector and a flame ionization detector (FID) at 245° C. equipped with one of the following J&W Scientific capillary columns: stationary phase DB-[…], high polarity, film thickness 0.25 μm, length 30 m, i.d. 0.248 mm or HP-5, low polarity, film thickness 0.25 μm, length 30 m, i.d. 0.251 mm. After an initial temperature of 50° C., which was held for 2 min following injection, the temperature of the GC oven was increased at 15° C./min to 235° C., which was held for 8 min. The enantiomers of linalool present in the odor of citrus were separated for their identification using a β-cyclodextrin column (stationary phase HP-Chiral-20B, mid-polar polarity, film thickness 0.25 μm, length 30 m, i.d. 0.252 mm). Following the injection of the linalool enantiomers, the initial temperature of 50° C. was held for 2 min following injection and then increased at 3° C./min to 180° C. Carrier gas (He) flow was 50 cm/s. The effluent from the column was split using a Gerstel GraphPack-3D/2 splitter with a ratio of approximately 1 part to the FID and 4 parts to the electroantennogram detector (EAD). The latter was swept by the humidified air-stream to the electrophysiological preparation from a heated transfer line (Syntech) at 245° C. Volatiles that elicited responses on the antenna were identified by GC-MS (Dickens, J. C., et al., J. Exp. Biol., 4: 309-314 (2002)).

D. abbreviatus adults = experiment: Open T-track dual choice olfactometer behavioral experiments; type: in vivo, Diaprepes abbreviatus; design: unit not given here; settings: stereotyped behavior in T-track olfactometer
Text: Behavioral experiments: An open T-track dual choice olfactometer described by Dickens (1999) was modified as follows. A container (diameter 11 cm, height 8 cm) with petrolatum on its border, to prevent the escape of insects that were placed in its interior, was placed at the bottom of the vertical “T”. As D. abbreviatus is reluctant to move for long periods (some times hours) after being manipulated, 20-30 insects of the same sex were placed in the container in order to increase chances of observing insects walking. When more than one insect started to climb the “T” tube, the experiment was discarded. Stereotyped behaviors performed by the weevil were recorded using a video camera (Digital Handycam DCR-TVR30).
The following compounds diluted in 25 μl of mineral oil placed on a 4.25 cm filter paper (No. 2, Whatman, England) in a odour-delivery bottle were tested separately in the olfactometer (doses indicated in parenthesis): (±)-linalool (25 μg), (R)-(+)-citronellal (25 μg), carvacrol (25 μg) and cis-3-hexen-1-ol (25 μg). The following blends were also tested: (±)-linalool (25 μg)+carvacrol (2.5 μg) and (±)-linalool (25 μg)+carvacrol (2.5 μg)+cis-3-hexen-1-ol (25 μg). An equal amount of the mineral oil solvent on filter paper was placed in the other side of the olfactometer. In order to observe the behaviour of insects to solvent alone, mineral oil was placed in both odour-delivery bottles. Responses of forty insects (20 females and 20 males) were recorded for each stimulus.
as §1

[2] = at the injected amounts 1 ng and 10 ng

CC(C)=CCC/C(C)=C\CO [nerol, cis-geraniol (nerol)]
increase in EAG response from 1 to 10 μg in the stimulus cartridge (D. abbreviatus antennae): did not share such a pattern | antennal response (EAD) to constituents of citrus leaf headspace [1]: EAGs were recorded | antennal response (EAD) to injected synthetic compound [1, 2]: no responses

CC(C)=CCCC(C)=CC=O [citral (cis and trans), citral]
antenna sensory threshold (D. abbreviatus antennae; females): around 0.1 μg | antenna sensory threshold (D. abbreviatus antennae; males): around 0.1 μg

C=C[C@](C)(O)CCC=C(C)C [(R)-(−)-linalool]
Mean EAG of the weevil antenna to the standard (D. abbreviatus antennae): 1.750±0.311 mV | EAGs compared on the same antenna (enantiomer/racemate comparison) (D. abbreviatus antennae; females): did not differ significantly | antenna sensory threshold (D. abbreviatus antennae; females): around 0.1 μg | EAGs compared on the same antenna (enantiomer/racemate comparison) (D. abbreviatus antennae; males): did not differ significantly | antenna sensory threshold (D. abbreviatus antennae; males): around 0.1 μg

C=CC(C)(O)CCC=C(C)C (centres unmarked) [linalool]
antennal response (EAD) to constituents of citrus leaf headspace [1]: EAGs were recorded

CC(C)=CCCC(C)CC=O (centres unmarked) [citronellal]
antennal response (EAD) to constituents of citrus leaf headspace [1]: EAGs were recorded

CC(C)=CCC[C@@H](C)CC=O [(R)-(+)-citronellal]
hesitation (D. abbreviatus adults; females): 95 | reaching (D. abbreviatus adults; females): 62.5 | rectifying (D. abbreviatus adults; females): 15 | hesitation (D. abbreviatus adults; males): 85 | reaching (D. abbreviatus adults; males): 52.5 | rectifying (D. abbreviatus adults; males): 5 | EAGs compared on the same antenna (enantiomer/racemate comparison) (D. abbreviatus antennae; females): larger than for (S)-(−)-citronellal | EAGs compared on the same antenna (enantiomer/racemate comparison) (D. abbreviatus antennae; males): larger than for (S)-(−)-citronellal

Cc1ccc(C(C)C)cc1O [carvacrol]
hesitation (D. abbreviatus adults; females): 90 | reaching (D. abbreviatus adults; females): 45 | rectifying (D. abbreviatus adults; females): 32.5 | hesitation (D. abbreviatus adults; males): 95 | reaching (D. abbreviatus adults; males): 45 | rectifying (D. abbreviatus adults; males): 47.5 | increase in EAG response from 1 to 10 μg in the stimulus cartridge (D. abbreviatus antennae): did not share such a pattern | EAG dose-response curve at the two higher stimulus loads (D. abbreviatus antennae; females): reached saturation | increase in EAGs in response to serial dilutions (D. abbreviatus antennae; females, from 0.01 μg to 1 μg): more pronounced than for males | antenna sensory threshold (D. abbreviatus antennae; females): around 0.1 μg | EAG dose-response curve at the two higher stimulus loads (D. abbreviatus antennae; males): continued to increase | antennal response (EAD) to injected synthetic compound [1, 2]: EAGs were recorded only for the two former chemicals

CC(C)=CCC/C(C)=C\C=O [cis-citral, cis-citral (neral)]
antennal response (EAD) to injected synthetic compound [1, 2]: no responses

CC(C)=CCC[C@H](C)CC=O [(S)-(−)-citronellal]
antenna sensory threshold (D. abbreviatus antennae; males): around 0.1 μg

CC/C=C\CCO [cis-3-hexen-1-ol]
hesitation (D. abbreviatus adults; females): 75 | reaching (D. abbreviatus adults; females): 12.5 | rectifying (D. abbreviatus adults; females): 10 | hesitation (D. abbreviatus adults; males): 85 | reaching (D. abbreviatus adults; males): 30 | rectifying (D. abbreviatus adults; males): 12.5 | Mean EAG of the weevil antenna to the standard (D. abbreviatus antennae): 1.605±0.200 mV | antenna sensory threshold (D. abbreviatus antennae; females): around 0.1 μg | antenna sensory threshold (D. abbreviatus antennae; males): around 0.1 μg | antennal response (EAD) to injected synthetic compound [1, 2]: EAGs were recorded

C=CC(C)(O)CCC=C(C)C (racemic) [(±)-linalool]
hesitation (D. abbreviatus adults; females): 80 | reaching (D. abbreviatus adults; females): 30 | rectifying (D. abbreviatus adults; females): 22.5 | hesitation (D. abbreviatus adults; males): 82.5 | reaching (D. abbreviatus adults; males): 52.5 | rectifying (D. abbreviatus adults; males): 25 | EAGs compared on the same antenna (enantiomer/racemate comparison) (D. abbreviatus antennae; females): did not differ significantly | EAGs compared on the same antenna (enantiomer/racemate comparison) (D. abbreviatus antennae; males): did not differ significantly | antennal response (EAD) to injected synthetic compound ([1]; 10 ng injected): persisted

CC(C)=CCCC(C)CC=O (racemic) [(±)citronellal]
antennal response (EAD) to injected synthetic compound ([1]; 1 ng injected, the lowest dose): disappeared | antennal response (EAD) to injected synthetic compound ([1]; 10 ng injected): persisted

CC(C)=CCC/C(C)=C/CO [trans-geraniol]
increase in EAG response from 1 to 10 μg in the stimulus cartridge (D. abbreviatus antennae): did not share such a pattern | increase in magnitude of EAGs with increments in amount dosed in the stimulus cartridge (D. abbreviatus antennae; females): EAG increase was not pronounced | antenna sensory threshold (D. abbreviatus antennae; females): around 0.1 μg | increase in magnitude of EAGs with increments in amount dosed in the stimulus cartridge (D. abbreviatus antennae; males): no significant increases | antennal response (EAD) to injected synthetic compound [1, 2]: no responses

CC(C)=CCC/C(C)=C/C=O [trans-citral, trans-citral (geranial)]
antennal response (EAD) to constituents of citrus leaf headspace [1]: EAGs were recorded | antennal response (EAD) to injected synthetic compound [1, 2]: no responses

CCC/C=C/CO [trans-2-hexen-1-ol]
antenna sensory threshold (D. abbreviatus antennae; females): around 0.1 μg | antenna sensory threshold (D. abbreviatus antennae; males): around 0.1 μg | antennal response (EAD) to injected synthetic compound [1, 2]: EAGs were recorded
